Measurements reported in ChEMBL document CHEMBL1201862, “PubChem BioAssay data set” (2004).
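Each compound was tested at five concentrations against cells in 96-well plates for 48 hours. At the GI50, growth is halved.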 Active and inactive are the calls of the source. No stated cut-off is given here; in the data, active = GI50 up to about 1.1 µM and inactive = higher. Where a SMILES comes first, the peptide text is derived from it. [ ]: non-standard residue; d: D form. The star is where a group is joined. Bn2Val = CC(C)[C@@H](C(=O)*)N(Cc1ccccc1)Cc1ccccc1; NH(4-F-benzyl) = Fc1ccc(CN*)cc1; NMeV = CN[C@H](C(=O)O)C(C)C; dNMeA = CN[C@H](C)C(=O)O

Key:
Experiment in all cases: growth of human tumour cells (NCI), 48 h
HL-60 = system: HL-60
CCRF-CEM = system: CCRF-CEM
BT-549 = system: BT-549
M14 = system: M14
IGROV-1 = system: IGROV-1
UACC-257 = system: UACC-257
SK-MEL-5 = system: SK-MEL-5
NCI/ADR-RES = system: NCI/ADR-RES
HCC 2998 = system: HCC 2998
SW-620 = system: SW-620
TK-10 = system: TK-10
Malme-3M = system: Malme-3M
HOP-62 = system: HOP-62
MDA-N = system: MDA-N
EKVX = system: EKVX
SK-OV-3 = system: SK-OV-3
CAKI-1 = system: CAKI-1
ACHN = system: ACHN
COLO 205 = system: COLO 205
UO-31 = system: UO-31
SNB-19 = system: SNB-19
SR = system: SR
NCI-H460 = system: NCI-H460
MCF7 = system: MCF7
MDA-MB-231 = system: MDA-MB-231
NCI-H522 = system: NCI-H522
786-0 = system: 786-0
OVCAR-5 = system: OVCAR-5
HCT-116 = system: HCT-116
SF-539 = system: SF-539
SK-MEL-28 = system: SK-MEL-28
A549 = system: A549
SN12C = system: SN12C
SF-268 = system: SF-268
HT-29 = system: HT-29
KM12 = system: KM12
T47D = system: T47D
OVCAR-8 = system: OVCAR-8
HCT-15 = system: HCT-15
PC-3 = system: PC-3
RXF 393 = system: RXF 393
DU-145 = system: DU-145
Hs-578T = system: Hs-578T
HOP-92 = system: HOP-92
MOLT-4 = system: MOLT-4
MDA-MB-435 = system: MDA-MB-435
SF-295 = system: SF-295
SK-MEL-2 = system: SK-MEL-2
NCI-H23 = system: NCI-H23
LOX IMVI = system: LOX IMVI
OVCAR-4 = system: OVCAR-4
UACC-62 = system: UACC-62
SNB-75 = system: SNB-75
A498 = system: A498
RPMI-8226 = system: RPMI-8226
NCI-H226 = system: NCI-H226
U-251 = system: U-251
OVCAR-3 = system: OVCAR-3
K562 = system: K562

## CC(C)[C@H](NC(=O)[C@H](C(C)C)N(Cc1ccccc1)Cc1ccccc1)C(=O)N(C)[C@H](C(=O)N1CCC[C@H]1C(=O)N(C)[C@H](C)C(=O)NCc1ccc(F)cc1)C(C)C (Bn2Val-V[NMeV]P[dNMeA]-{NH(4-F-benzyl)})
HL-60
  GI50: 2.54 µM (inactive)
CCRF-CEM
  GI50: 3.65 µM (inactive)
BT-549
  GI50: 4.06 µM (inactive)
M14
  GI50: 3.05 µM (inactive)
IGROV-1
  GI50: 3.19 µM (inactive)
UACC-257
  GI50: 5.19 µM (inactive)
SK-MEL-5
  GI50: 2.22 µM (inactive)
NCI/ADR-RES
  GI50: 4.38 µM (inactive)
HCC 2998
  GI50: 3.48 µM (inactive)
SW-620
  GI50: 4.25 µM (inactive)
TK-10
  GI50: 5.48 µM (inactive)
Malme-3M
  GI50: 3.63 µM (inactive)
HOP-62
  GI50: 5.47 µM (inactive)
MDA-N
  GI50: 4.29 µM (inactive)
EKVX
  GI50: 3.09 µM (inactive)
SK-OV-3
  GI50: 5.35 µM (inactive)
CAKI-1
  GI50: 5.13 µM (inactive)
ACHN
  GI50: 3.33 µM (inactive)
COLO 205
  GI50: 1.74 µM (inactive)
UO-31
  GI50: 2.19 µM (inactive)
SNB-19
  GI50: 4.88 µM (inactive)
SR
  GI50: 2.14 µM (inactive)
NCI-H460
  GI50: 4 µM (inactive)
MCF7
  GI50: 2.72 µM (inactive)
MDA-MB-231
  GI50: 3.55 µM (inactive)
NCI-H522
  GI50: 3.01 µM (inactive)
786-0
  GI50: 4.23 µM (inactive)
OVCAR-5
  GI50: 3.59 µM (inactive)
HCT-116
  GI50: 2.97 µM (inactive)
SF-539
  GI50: 2.71 µM (inactive)
SK-MEL-28
  GI50: 7.29 µM (inactive)
A549
  GI50: 3.3 µM (inactive)
SN12C
  GI50: 3.15 µM (inactive)
SF-268
  GI50: 3.19 µM (inactive)
HT-29
  GI50: 1.95 µM (inactive)
KM12
  GI50: 4.24 µM (inactive)
T47D
  GI50: 3.82 µM (inactive)
OVCAR-8
  GI50: 4.01 µM (inactive)
HCT-15
  GI50: 3.79 µM
PC-3
  GI50: 3.18 µM (inactive)
RXF 393
  GI50: 2.34 µM (inactive)
DU-145
  GI50: 4.88 µM (inactive)
Hs-578T
  GI50: 4.5 µM (inactive)
HOP-92
  GI50: 2.97 µM (inactive)
MOLT-4
  GI50: 2.55 µM (inactive)
MDA-MB-435
  GI50: 3.67 µM (inactive)
SF-295
  GI50: 3.44 µM (inactive)
SK-MEL-2
  GI50: 2.12 µM (inactive)
NCI-H23
  GI50: 3.82 µM (inactive)
LOX IMVI
  GI50: 1.85 µM (inactive)
OVCAR-4
  GI50: 4.28 µM (inactive)
UACC-62
  GI50: 2.96 µM (inactive)
SNB-75
  GI50: 4.07 µM (inactive)
A498
  GI50: 2.42 µM (inactive)
RPMI-8226
  GI50: 3.27 µM (inactive)
NCI-H226
  GI50: 2.65 µM (inactive)
U-251
  GI50: 3.3 µM (inactive)
OVCAR-3
  GI50: 2.88 µM (inactive)
K562
  GI50: 3.78 µM (inactive)

## C[n+]1c(-c2ccc(NC(=O)c3ccc(C(=O)Nc4ccc(-c5cn6ccccc6[n+]5C)cc4)cc3)cc2)cn2ccccc21
HL-60
  GI50: 23.4 µM (inactive)
CCRF-CEM
  GI50: > 65.6 µM (inactive)
BT-549
  GI50: > 100 µM (inactive)
M14
  GI50: > 100 µM (inactive)
IGROV-1
  GI50: > 66.5 µM (inactive)
UACC-257
  GI50: > 100 µM (inactive)
SK-MEL-5
  GI50: 43.1 µM (inactive)
NCI/ADR-RES
  GI50: > 100 µM (inactive)
HCC 2998
  GI50: > 100 µM (inactive)
SW-620
  GI50: > 100 µM (inactive)
TK-10
  GI50: > 100 µM (inactive)
Malme-3M
  GI50: 56.5 µM (inactive)
HOP-62
  GI50: > 100 µM (inactive)
MDA-N
  GI50: > 69.8 µM (inactive)
EKVX
  GI50: > 100 µM (inactive)
SK-OV-3
  GI50: > 100 µM (inactive)
CAKI-1
  GI50: > 100 µM (inactive)
ACHN
  GI50: > 100 µM (inactive)
COLO 205
  GI50: > 56.2 µM (inactive)
UO-31
  GI50: > 100 µM (inactive)
SNB-19
  GI50: > 100 µM (inactive)
SR
  GI50: 18.5 µM (inactive)
NCI-H460
  GI50: > 100 µM (inactive)
MCF7
  GI50: > 75 µM (inactive)
MDA-MB-231
  GI50: > 42.9 µM (inactive)
NCI-H522
  GI50: > 100 µM (inactive)
786-0
  GI50: 29 µM (inactive)
OVCAR-5
  GI50: > 100 µM (inactive)
HCT-116
  GI50: > 100 µM (inactive)
SF-539
  GI50: > 70.5 µM (inactive)
SK-MEL-28
  GI50: > 100 µM (inactive)
A549
  GI50: > 100 µM (inactive)
SN12C
  GI50: > 66.1 µM (inactive)
SF-268
  GI50: > 100 µM (inactive)
HT-29
  GI50: > 100 µM (inactive)
KM12
  GI50: > 82.6 µM (inactive)
T47D
  GI50: > 100 µM (inactive)
OVCAR-8
  GI50: > 100 µM (inactive)
HCT-15
  GI50: > 100 µM
PC-3
  GI50: > 100 µM (inactive)
RXF 393
  GI50: 39.6 µM (inactive)
DU-145
  GI50: > 100 µM (inactive)
Hs-578T
  GI50: > 100 µM (inactive)
HOP-92
  GI50: > 100 µM (inactive)
MOLT-4
  GI50: > 67.9 µM (inactive)
MDA-MB-435
  GI50: > 67.3 µM (inactive)
SF-295
  GI50: 47.5 µM (inactive)
SK-MEL-2
  GI50: > 100 µM (inactive)
NCI-H23
  GI50: > 100 µM (inactive)
LOX IMVI
  GI50: > 100 µM (inactive)
OVCAR-4
  GI50: > 100 µM (inactive)
UACC-62
  GI50: > 100 µM (inactive)
SNB-75
  GI50: 60.8 µM (inactive)
A498
  GI50: 39.1 µM (inactive)
RPMI-8226
  GI50: 14.3 µM (inactive)
NCI-H226
  GI50: > 100 µM (inactive)
U-251
  GI50: > 73.3 µM (inactive)
OVCAR-3
  GI50: > 100 µM (inactive)
K562
  GI50: > 100 µM (inactive)
